Results taken from US9326953B2, “Method and system for systemic delivery of growth arresting, lipid-derived bioactive compounds” (priority 2003, dated 2016).

Columns and labels:
[1] = tested on: MDA cells; assay: [3H]thymidine cell proliferation assay; type: cell-based, Human; conditions: [3H]thymidine incorporation, 10% FBS for 12 h of treatment; read-out: IC50 of C6, inhibition of MDA cell proliferation
Protocol: To determine the utility of conventional lipid formulations for the delivery of short-chain ceramide to MDA cells, a [^3H]thymidine proliferation assay was performed. Briefly, MDA cells were seeded at 3.5×10^4 cells/well in 24-well plates and grown overnight prior to 24 h of serum starvation. At hour 12 of serum starvation, cells were treated with liposomal or nonliposomal C6 for the remainder of serum starvation. Following serum starvation, media was then supplemented with FBS (10% final concentration) for an additional 12 h, and cellular proliferation was assayed with the addition of 0.5 mCi/ml [^3H]thymidine for the final 4 h of treatment. Cells were washed once with cold PBS and then twice with 10% trichloric acetic acid for 10 min. Cells were solubilized with 0.3 N NaOH, and [^3H]thymidine incorporation into acid-insoluble DNA was assessed with a scintillation counter.

[2] = tested on: MDA cells; assay: TUNEL staining of cleaved DNA; type: cell-based, Human
Protocol: An investigation to determine whether C6-dependent growth inhibition correlates with enhanced apoptosis was undertaken. To confirm that C6 delivery leads to MDA cell apoptosis, TUNEL analysis (Upstate Biotechnology, Lake Placid, N.Y.) was performed, which stains cleaved DNA, a hallmark of cellular apoptosis (FIG. 7A).

[3] = Toxicity after intravenous injection; type: in vivo; conditions: injection at 10 mg/kg

CCCCCCCCCCCCC/C=C/[C@@H](O)[C@H](CO)NC(=O)CCCCC [nonliposomal C6, D-erythro-hexanoyl-sphingosine]
IC50 [1]: 15 µM | DNA fragmentation (TUNEL) at 16 h ([2]; 20 μM, 16 h of treatment): induced DNA fragmentation | DNA fragmentation (TUNEL) at 8 h ([2]; cycling, serum-fed MDA cells, 8 h): no DNA fragmentation | mice killed [3]: 50%
